Experimental data: patent US20120277197A1, “TIGECYCLINE FORMULATIONS” (WYETH, priority 2008, published 2012)

Legend:
[1] = Effect of pH on stability of tigecycline 0.50 mg/ml in Normal Saline, in a flask at 25° C.; format: physicochemical
Method: The effect of pH on the stability of tigecycline formulations having a concentration of 0.50 mg tigecycline/ml in a Normal Saline solution was studied by analyzing the variation of tigecycline content, total impurity content, and the concentration of tigecycline epimer at different pH values, either in the presence of air or under an atmosphere having an oxygen content of less than 1 ppm, in a flask at 25° C.

[2] = simple oral immediate release prototypes, animals; cited from earlier work
[3] = pH 3, 0 h, in the presence of air
[4] = pH 3, 8 h, in the presence of air
[5] = pH 3, 24 h, in the presence of air
[6] = pH 3, 72 h, in the presence of air
[7] = pH 3.5, 0 h, in the presence of air
[8] = pH 3.5, 8 h, in the presence of air
[9] = pH 3.5, 24 h, in the presence of air
[10] = pH 3.5, 72 h, in the presence of air
[11] = pH 4.0, 0 h, in the presence of air
[12] = pH 4.0, 24 h, in the presence of air
[13] = pH 4.0, 72 h, in the presence of air
[14] = pH 4.5, 0 h, in the presence of air
[15] = pH 4.5, 8 h, in the presence of air
[16] = pH 4.5, 24 h, in the presence of air
[17] = pH 4.5, 72 h, in the presence of air
[18] = pH 5.0, 0 h, in the presence of air
[19] = pH 5.0, 24 h, in the presence of air
[20] = pH 5.0, 72 h, in the presence of air
[21] = pH 5.5, 0 h, in the presence of air
[22] = pH 5.5, 24 h, in the presence of air
[23] = pH 5.5, 72 h, in the presence of air
[24] = pH 6.5, 0 h, in the presence of air
[25] = pH 6.5, 8 h, in the presence of air
[26] = pH 6.5, 24 h, in the presence of air
[27] = pH 6.5, 72 h, in the presence of air
[28] = pH 8.0, 0 h, in the presence of air
[29] = pH 8.0, 8 h, in the presence of air
[30] = pH 8.0, 24 h, in the presence of air
[31] = pH 8.0, 72 h, in the presence of air

## CN(C)c1cc(NC(=O)CNC(C)(C)C)c(O)c2c1C[C@H]1C[C@H]3[C@H](N(C)C)C(O)=C(C(N)=O)C(=O)[C@@]3(O)C(O)=C1C2=O [tigecycline, Tigecycline]
[1]; in the presence of air
  pH at which the solution is most stable, based on total impurity content and tigecycline content: 4.5-5.0
[1]; oxygen <1 ppm
  pH at which the solution is most stable: 4.5-6.0
[1]; [3]
  Total impurity content as a % of initial weight of tigecycline: 0.36%
  Total tigecycline epimer content as a % of initial weight of tigecycline: 0.19%
[1]; pH 3.0, 0 h, in the presence of air
  Percentage of tigecycline remaining: 100%
[1]; pH 3, 0 h, oxygen <1 ppm
  Total impurity content as a % of initial weight of tigecycline: 0.258%
  Total tigecycline epimer content as a % of initial weight of tigecycline: 0.152%
[1]; pH 3.0, 0 h, oxygen <1 ppm
  Percentage of tigecycline remaining: 100.0%
[1]; [4]
  Total impurity content as a % of initial weight of tigecycline: 0.907%
  Total tigecycline epimer content as a % of initial weight of tigecycline: 0.83%
[1]; pH 3.0, 8 h, in the presence of air
  Percentage of tigecycline remaining: 100%
[1]; pH 3, 8 h, oxygen <1 ppm
  Total impurity content as a % of initial weight of tigecycline: 0.628%
  Total tigecycline epimer content as a % of initial weight of tigecycline: 0.485%
[1]; pH 3.0, 8 h, oxygen <1 ppm
  Percentage of tigecycline remaining: 99.55%
[1]; [5]
  Total impurity content as a % of initial weight of tigecycline: 2.564%
  Total tigecycline epimer content as a % of initial weight of tigecycline: 2.27%
[1]; pH 3.0, 24 h, in the presence of air
  Percentage of tigecycline remaining: 98%
[1]; pH 3, 24 h, oxygen <1 ppm
  Total impurity content as a % of initial weight of tigecycline: 2.391%
  Total tigecycline epimer content as a % of initial weight of tigecycline: 2.267%
[1]; pH 3.0, 24 h, oxygen <1 ppm
  Percentage of tigecycline remaining: 98.08%
[1]; [6]
  Total impurity content as a % of initial weight of tigecycline: 8.3%
  Total tigecycline epimer content as a % of initial weight of tigecycline: 7.58%
[1]; pH 3.0, 72 h, in the presence of air
  Percentage of tigecycline remaining: 93%
[1]; pH 3, 72 h, oxygen <1 ppm
  Total impurity content as a % of initial weight of tigecycline: 7.853%
  Total tigecycline epimer content as a % of initial weight of tigecycline: 7.651%
[1]; pH 3.0, 72 h, oxygen <1 ppm
  Percentage of tigecycline remaining: 92.24%
[1]; [7]
  Percentage of tigecycline remaining: 100%
  Total impurity content as a % of initial weight of tigecycline: 0.35%
  Total tigecycline epimer content as a % of initial weight of tigecycline: 0.18%
[1]; pH 3.5, 0 h, oxygen <1 ppm
  Percentage of tigecycline remaining: 100.0%
  Total impurity content as a % of initial weight of tigecycline: 0.245%
  Total tigecycline epimer content as a % of initial weight of tigecycline: 0.133%
[1]; [8]
  Percentage of tigecycline remaining: 100%
  Total impurity content as a % of initial weight of tigecycline: 0.737%
  Total tigecycline epimer content as a % of initial weight of tigecycline: 0.47%
[1]; pH 3.5, 8 h, oxygen <1 ppm
  Percentage of tigecycline remaining: 100.19%
  Total impurity content as a % of initial weight of tigecycline: 0.559%
  Total tigecycline epimer content as a % of initial weight of tigecycline: 0.383%
[1]; [9]
  Percentage of tigecycline remaining: 100%
  Total impurity content as a % of initial weight of tigecycline: 1.727%
  Total tigecycline epimer content as a % of initial weight of tigecycline: 1.45%
[1]; pH 3.5, 24 h, oxygen <1 ppm
  Percentage of tigecycline remaining: 99.26%
  Total impurity content as a % of initial weight of tigecycline: 1.478%
  Total tigecycline epimer content as a % of initial weight of tigecycline: 1.351%
[1]; [10]
  Percentage of tigecycline remaining: 95%
  Total impurity content as a % of initial weight of tigecycline: 5.521%
  Total tigecycline epimer content as a % of initial weight of tigecycline: 4.83%
[1]; pH 3.5, 72 h, oxygen <1 ppm
  Percentage of tigecycline remaining: 96.03%
  Total impurity content as a % of initial weight of tigecycline: 4.913%
  Total tigecycline epimer content as a % of initial weight of tigecycline: 4.671%
[1]; [11]
  Percentage of tigecycline remaining: 100%
  Total impurity content as a % of initial weight of tigecycline: 0.32%
  Total tigecycline epimer content as a % of initial weight of tigecycline: 0.189%
[1]; [12]
  Percentage of tigecycline remaining: 100%
  Total impurity content as a % of initial weight of tigecycline: 1.06%
  Total tigecycline epimer content as a % of initial weight of tigecycline: 0.90%
[1]; [13]
  Percentage of tigecycline remaining: 98%
  Total impurity content as a % of initial weight of tigecycline: 3.129%
  Total tigecycline epimer content as a % of initial weight of tigecycline: 2.90%
[1]; [14]
  Percentage of tigecycline remaining: 100%
  Total impurity content as a % of initial weight of tigecycline: 0.30%
  Total tigecycline epimer content as a % of initial weight of tigecycline: 0.16%
[1]; pH 4.5, 0 h, oxygen <1 ppm
  Percentage of tigecycline remaining: 100.0%
  Total impurity content as a % of initial weight of tigecycline: 0.232%
  Total tigecycline epimer content as a % of initial weight of tigecycline: 0.116%
[1]; [15]
  Percentage of tigecycline remaining: 100%
  Total impurity content as a % of initial weight of tigecycline: 0.483%
  Total tigecycline epimer content as a % of initial weight of tigecycline: 0.30%
[1]; pH 4.5, 8 h, oxygen <1 ppm
  Percentage of tigecycline remaining: 99.69%
  Total impurity content as a % of initial weight of tigecycline: 0.368%
  Total tigecycline epimer content as a % of initial weight of tigecycline: 0.233%
[1]; [16]
  Percentage of tigecycline remaining: 99%
  Total impurity content as a % of initial weight of tigecycline: 0.75%
  Total tigecycline epimer content as a % of initial weight of tigecycline: 0.65%
[1]; pH 4.5, 24 h, oxygen <1 ppm
  Percentage of tigecycline remaining: 99.72%
  Total impurity content as a % of initial weight of tigecycline: 0.682%
  Total tigecycline epimer content as a % of initial weight of tigecycline: 0.547%
[1]; [17]
  Percentage of tigecycline remaining: 97%
  Total impurity content as a % of initial weight of tigecycline: 2.625%
  Total tigecycline epimer content as a % of initial weight of tigecycline: 1.95%
[1]; pH 4.5, 72 h, oxygen <1 ppm
  Percentage of tigecycline remaining: 98.50%
  Total impurity content as a % of initial weight of tigecycline: 2.365%
  Total tigecycline epimer content as a % of initial weight of tigecycline: 1.934%
[1]; [18]
  Percentage of tigecycline remaining: 100%
  Total impurity content as a % of initial weight of tigecycline: 0.29%
  Total tigecycline epimer content as a % of initial weight of tigecycline: 0.167%
[1]; [19]
  Percentage of tigecycline remaining: 101%
  Total impurity content as a % of initial weight of tigecycline: 0.691%
  Total tigecycline epimer content as a % of initial weight of tigecycline: 0.49%
[1]; [20]
  Percentage of tigecycline remaining: 99%
  Total impurity content as a % of initial weight of tigecycline: 2.632%
  Total tigecycline epimer content as a % of initial weight of tigecycline: 1.69%
[1]; [21]
  Percentage of tigecycline remaining: 100%
  Total impurity content as a % of initial weight of tigecycline: 0.31%
  Total tigecycline epimer content as a % of initial weight of tigecycline: 0.162%
[1]; [22]
  Percentage of tigecycline remaining: 99%
  Total impurity content as a % of initial weight of tigecycline: 0.865%
  Total tigecycline epimer content as a % of initial weight of tigecycline: 0.52%
[1]; [23]
  Percentage of tigecycline remaining: 97%
  Total impurity content as a % of initial weight of tigecycline: 3.221%
  Total tigecycline epimer content as a % of initial weight of tigecycline: 1.31%
[1]; [24]
  Percentage of tigecycline remaining: 100%
  Total impurity content as a % of initial weight of tigecycline: 0.31%
  Total tigecycline epimer content as a % of initial weight of tigecycline: 0.15%
[1]; pH 6.5, 0 h, oxygen <1 ppm
  Percentage of tigecycline remaining: 100.0%
  Total impurity content as a % of initial weight of tigecycline: 0.224%
  Total tigecycline epimer content as a % of initial weight of tigecycline: 0.111%
[1]; [25]
  Percentage of tigecycline remaining: 100%
  Total impurity content as a % of initial weight of tigecycline: 0.602%
  Total tigecycline epimer content as a % of initial weight of tigecycline: 0.26%
[1]; pH 6.5, 8 h, oxygen <1 ppm
  Percentage of tigecycline remaining: 100.56%
  Total impurity content as a % of initial weight of tigecycline: 0.399%
  Total tigecycline epimer content as a % of initial weight of tigecycline: 0.188%
[1]; [26]
  Percentage of tigecycline remaining: 100%
  Total impurity content as a % of initial weight of tigecycline: 1.429%
  Total tigecycline epimer content as a % of initial weight of tigecycline: 0.43%
[1]; pH 6.5, 24 h, oxygen <1 ppm
  Percentage of tigecycline remaining: 99.59%
  Total impurity content as a % of initial weight of tigecycline: 0.812%
  Total tigecycline epimer content as a % of initial weight of tigecycline: 0.45%
[1]; [27]
  Percentage of tigecycline remaining: 86%
  Total impurity content as a % of initial weight of tigecycline: 11.78%
  Total tigecycline epimer content as a % of initial weight of tigecycline: 1.08%
[1]; pH 6.5, 72 h, oxygen <1 ppm
  Percentage of tigecycline remaining: 98.03%
  Total impurity content as a % of initial weight of tigecycline: 2.654%
  Total tigecycline epimer content as a % of initial weight of tigecycline: 1.532%
[1]; [28]
  Percentage of tigecycline remaining: 100%
  Total impurity content as a % of initial weight of tigecycline: 0.30%
  Total tigecycline epimer content as a % of initial weight of tigecycline: 0.14%
[1]; pH 8.0, 0 h, oxygen <1 ppm
  Percentage of tigecycline remaining: 100.0%
  Total impurity content as a % of initial weight of tigecycline: 0.22%
  Total tigecycline epimer content as a % of initial weight of tigecycline: 0.107%
[1]; [29]
  Percentage of tigecycline remaining: 100%
  Total impurity content as a % of initial weight of tigecycline: 0.924%
  Total tigecycline epimer content as a % of initial weight of tigecycline: 0.27%
[1]; pH 8.0, 8 h, oxygen <1 ppm
  Percentage of tigecycline remaining: 100.81%
  Total impurity content as a % of initial weight of tigecycline: 0.443%
  Total tigecycline epimer content as a % of initial weight of tigecycline: 0.192%
[1]; [30]
  Percentage of tigecycline remaining: 95%
  Total impurity content as a % of initial weight of tigecycline: 3.737%
  Total tigecycline epimer content as a % of initial weight of tigecycline: 0.43%
[1]; pH 8.0, 24 h, oxygen <1 ppm
  Percentage of tigecycline remaining: 99.64%
  Total impurity content as a % of initial weight of tigecycline: 1.214%
  Total tigecycline epimer content as a % of initial weight of tigecycline: 0.425%
[1]; [31]
  Percentage of tigecycline remaining: 57%
  Total impurity content as a % of initial weight of tigecycline: 29.654%
  Total tigecycline epimer content as a % of initial weight of tigecycline: 1.23%
[1]; pH 8.0, 72 h, oxygen <1 ppm
  Percentage of tigecycline remaining: 95.98%
  Total impurity content as a % of initial weight of tigecycline: 3.461%
  Total tigecycline epimer content as a % of initial weight of tigecycline: 1.516%
[2]
  bioavailability: poor bioavailability
